Data published in patent US8685924B2, “Preventives/remedies for stress urinary incontinence and method of screening the same” (Takeda Pharmaceutical Company Limited, priority 2004, dated 2014).

Experiments:
Type in all cases: in vivo, rat
[1] = system: urethane-anesthetized female rats; assay: Leak point pressure by abdominal wall-electrically stimulating method, serotonin 5-HT receptor agonists (Example 3); conditions: for leak point pressure after drug administration / leak point pressure increase / leak point pressure before drug administration: i.v., mean ± SEM; for leak point pressure before drug administration: baseline
Method: (§1) SD female rats (body weight 180-350 g) were anesthetized with urethane (Wako Pure Chemical Industries, Ltd.), and the spinal cord was transected at T8-9 level to eliminate the reflex voiding. In addition, the nerve to the iliococcygeus muscle/pubococcygeus muscle on the one side was transected. During operation, halothane (Takeda Pharmaceutical Company Limited) anesthesia was added when necessary. A catheter (PE-90, Clay Adams) was inserted into the bladder and secured with a ligature, and the incised part of each of the abdominal muscle and skin was closed with sutures. The abdominal skin near the diaphragm was incised at two left and right positions to newly expose the abdominal muscle. An Evans Blue dye (Merck) solution was injected into the bladder, and the bladder volume was adjusted to 0.2-0.3 ml. The bladder catheter was connected to a pressure transducer, and the signals of the transducer were sent to a computer via an amplifier (blood pressure amplification unit AP-641G; NIHON KOHDEN) and an analog-to-digital converter (BIOPAC; MP100), and recorded on a hard disc. The data were analyzed on a computer using software (BIOPAC; AcqKnowledge). The exposed abdominal muscle was electrostimulated using an electrostimulator (SEN-3301; NIHON KODEN) and an isolator (SS-202J; NIHON KODEN), and the presence or absence of incontinence from the meatus urethra was observed. The electrostimulation was applied at a voltage of 2.5-50 V, duration of 0.5 milisec, and frequency 50 Hz for 1 sec, thereby gradually increasing the intravesical pressure. The peak intravesical pressure during stimulation of the abdominal wall was measured and, of the trials with observed incontinence, the lowest peak intravesical pressure was defined as the leak point pressure. Serotonin 5-HT receptor agonist, WAY-161503 (5-HT2C receptor agonist), WAY-163909 (5-HT2C receptor agonist), DOI (5-HT2A/2B/2C receptor agonist), mCPP (5-HT2B/2C receptor partial agonist), eltoprazine (5-HT1A/1B/2C receptor partial agonist), 8-OH-DPAT (5-HT1A receptor agonist), sumatryptan (5-HT1B/1D receptor agonist) and BW723C86 (5-HT2B receptor agonist) were intravenously administered, and the leak point pressure was compared before and after the administration. DOI, mCPP and eltoprazine were dissolved in saline, and other drugs were dissolved in DMA/PEG400 (1:1), and they were intravenously administered at 1 ml/kg and 0.5 mg/kg, respectively. Depending on the experiment, RS-102221 (serotonin 5-HT2C receptor antagonist) or SB221284 (serotonin 5-HT2B/2C receptor antagonist) was intravenously administered 5 min before WAY-161503 or WAY-163909 administration, and an antagonistic effect against the WAY-161503 or WAY-163909-induced increment of the leak point pressure was examined. RS-102221 and SB221284 were both dissolved in DMA/PEG400 (1:1) and intravenously administered at 0.5 ml/kg.

[2] = system: urethane-anesthetized female rats; assay: Antagonism of the leak point pressure increase by WAY-161503 / WAY-163909, abdominal wall-electrically stimulating method (Example 3); conditions: agonist 0.3 mg/kg, i.v., antagonist: solvent, mean ± SEM
Method: as §1

[3] = system: urethane-anesthetized female rats; assay: Leak point pressure by abdominal wall electrostimulation, rats with nerve to iliococcygeus/pubococcygeus muscle transected on one side (Example 2); conditions: for leak point pressure after drug administration / leak point pressure increase / leak point pressure before drug administration: i.v., mean ± SEM; for leak point pressure before drug administration: baseline
Method: SD female rats (body weight 180-350 g) were anesthetized with urethane (Wako Pure Chemical Industries, Ltd.), and the spinal cord was cut at T8-9 level to eliminate the reflex voiding. In addition, the nerve to the iliococcygeus muscle/pubococcygeus muscle on the one side was transected. During operation, halothane (Takeda Pharmaceutical Company Limited) anesthesia was added when necessary. A catheter (PE-90, Clay Adams) was inserted into the bladder and secured with a ligature, and the incised part of each of the abdominal muscle and skin was closed with sutures. The abdominal skin near the diaphragm was incised at two left and right positions to newly expose the abdominal muscle. An Evans Blue dye (Merck) solution was injected into the bladder, and the bladder volume was adjusted to 0.2-0.3 ml. The bladder catheter was connected to a pressure transducer, and the signals of the transducer were sent to a computer via an amplifier (blood pressure amplification unit AP-641G; NIHON KOHDEN) and an analog-to-digital converter (BIOPAC; MP100), and recorded on a hard disc. The data were analyzed on a computer using software (BIOPAC; AcqKnowledge). The exposed abdominal muscle was electrostimulated using an electrostimulator (SEN-3301; NIHON KODEN) and an isolator (SS-202J; NIHON KODEN), and the presence or absence of incontinence from the urethral orifice was observed. The electrostimulation was applied at a voltage of 3-50 V, duration of 0.05-0.5 milisec, and frequency 50 Hz for 1 sec, thereby gradually increasing the intravesical pressure. The peak intravesical pressure during stimulation of the abdominal wall was measured and, of the trials with observed incontinence, the lowest peak intravesical pressure was defined as the leak point pressure. The leak point pressure was compared before and after the duloxetine and midodrine administration. Duloxetine was dissolved in […] (DMA)/polyethylene glycol 400 (PEG400) (1:1), and intravenously administered at 0.5 ml/kg. Midodrine (hydrochloride, Sigma) was dissolved in saline and intravenously administered at 1 ml/kg.

O=C1Nc2cc(Cl)c(Cl)cc2N2CCNCC12 (stereo not drawn) [WAY-161503]
leak point pressure after drug administration ([1]; 0.03 mg/kg): 58.7 ± 6.8 cmH2O
leak point pressure increase ([1]; 0.03 mg/kg): 9.7 ± 2.9 cmH2O
leak point pressure after drug administration ([1]; 0.1 mg/kg): 59.5 ± 4.9 cmH2O
leak point pressure increase ([1]; 0.1 mg/kg): 12.6 ± 2.8 cmH2O
leak point pressure after drug administration ([1]; 0.3 mg/kg): 68.1 ± 6.8 cmH2O
leak point pressure increase ([1]; 0.3 mg/kg): 19.6 ± 4.4 cmH2O
leak point pressure after drug administration ([1]; 1 mg/kg): 80.1 ± 2.7 cmH2O
leak point pressure increase ([1]; 1 mg/kg): 30.7 ± 3.5 cmH2O
leak point pressure before drug administration ([1]; dose group 0.03 mg/kg): 49.0 ± 8.0 cmH2O
leak point pressure before drug administration ([1]; dose group 0.1 mg/kg): 46.9 ± 4.6 cmH2O
leak point pressure before drug administration ([1]; dose group 0.3 mg/kg): 48.5 ± 5.2 cmH2O
leak point pressure before drug administration ([1]; dose group 1 mg/kg): 49.4 ± 1.4 cmH2O
dose at which a significant effect on the leak point pressure was afforded ([1]; intravenous administration): not less than 0.03 mg/kg
effect on leak point pressure ([1]; intravenous administration): dose-dependently increased the leak point pressure
leak point pressure after drug administration [2]: 76.6 ± 5.4 cmH2O
leak point pressure increase [2]: 27.8 ± 2.8 cmH2O
leak point pressure before drug administration ([2]; baseline): 48.7 ± 5.3 cmH2O

CNCC[C@H](Oc1cccc2ccccc12)c1cccs1 [duloxetine]
leak point pressure after drug administration ([3]; 0.3 mg/kg): 48.3 ± 7.9 cmH2O
leak point pressure increase ([3]; 0.3 mg/kg): 2.4 ± 4.3 cmH2O
leak point pressure after drug administration ([3]; 1 mg/kg): 53.0 ± 4.8 cmH2O
leak point pressure increase ([3]; 1 mg/kg): 8.1 ± 2.3 cmH2O
leak point pressure after drug administration ([3]; 3 mg/kg): 61.4 ± 3.9 cmH2O
leak point pressure increase ([3]; 3 mg/kg): 12.9 ± 3.2 cmH2O
leak point pressure after drug administration ([3]; 10 mg/kg): 53.0 ± 8.8 cmH2O
leak point pressure increase ([3]; 10 mg/kg): 13.0 ± 2.5 cmH2O
leak point pressure before drug administration ([3]; dose group 0.3 mg/kg): 45.9 ± 5.4 cmH2O
leak point pressure before drug administration ([3]; dose group 1 mg/kg): 44.9 ± 5.9 cmH2O
leak point pressure before drug administration ([3]; dose group 3 mg/kg): 48.5 ± 4.8 cmH2O
leak point pressure before drug administration ([3]; dose group 10 mg/kg): 40.0 ± 7.3 cmH2O
effect on leak point pressure, comparison before and after administration ([3]; intravenously administered): significant increase in the leak point pressure
